Assay results published in the NIST ThermoML archive (doi:10.1021/je8008182).
Where “and” joins values, the source holds several entries; their conditions need not be identical. Identical values can stand only once.

Columns and labels:
[1] = wn = mass fraction of the nth substance listed; conditions: 101 kPa, Liquid, w1 = 0.2; for mass density: Pycnometric method; for viscosity: Capillary tube (Ostwald / Ubbelohde) method
[2] = Liquid; for viscosity: Capillary tube (Ostwald / Ubbelohde) method; for mass density: Pycnometric method
[3] = xn = mol fraction of the nth substance listed; conditions: 101 kPa, Liquid, x2 = 0; for viscosity: Capillary tube (Ostwald / Ubbelohde) method; for mass density: Pycnometric method

O=S(=O)(O)O [sulfuric acid] + O
[1]
Conditions	mass density [kg/m3]	viscosity [mPa·s]
283.15 K	1145	–
293.15 K	1139.6	1.543
298.15 K	1136.4	–
303.15 K	1133.7	1.21
313.15 K	1127.8	0.987
323.15 K	1121.9	0.824
333.15 K	1115.7	0.716
343.15 K	1108.9	0.638

O [water]
[2], 101 kPa
Conditions	mass density [kg/m3]	viscosity [mPa·s]
298.15 K	–	0.8903
303.15 K	–	0.7973
308.15 K	–	0.719
313.15 K	–	0.6526
318.15 K	–	0.5972
323.15 K	988	0.5468
328.15 K	985.7	0.5042
333.15 K	983.2	0.4669
338.15 K	980.6	0.4341

O [water] + Cc1ccncc1
[3]
Conditions	mass density [kg/m3]	viscosity [mPa·s]
298.15 K	–	0.8903
303.15 K	–	0.7973
308.15 K	–	0.719
313.15 K	–	0.6526
318.15 K	–	0.5972
323.15 K	988	0.5468
328.15 K	985.7	0.5042
333.15 K	983.2	0.4669
338.15 K	980.6	0.4341

Cc1ccncc1 [4-methylpyridine]
[2]
Conditions	mass density, 101 kPa	mass density, 101.33 kPa [kg/m3]	viscosity, 101 kPa [mPa·s]	viscosity, 101.33 kPa [mPa·s]
283.15 K	958.2 kg/m3	958.2	–	–
293.15 K	955.1 kg/m3	955.1	–	–
298.15 K	955.4 kg/m3 and 951.1 kg/m3	951.1	–	0.8723
303.15 K	951.1 kg/m3	–	0.8175	–
308.15 K	941.3 kg/m3	–	0.7774	–
313.15 K	936.6 kg/m3	–	0.7368	–
318.15 K	932.1 kg/m3	–	0.6855	–
323.15 K	927.7 kg/m3	–	0.6505	–
328.15 K	923.2 kg/m3	–	0.5905	–
333.15 K	918.5 kg/m3	–	0.5329	–
338.15 K	914 kg/m3	–	0.4815	–
